According to patent US7223760B2, “Substituted triazole compounds” (SmithKline Beecham Corporation, priority 1998, dated 2007):

Tests used:
Interleukin-1 (IL-1) = Interleukin-1 (IL-1) production by LPS-stimulated human peripheral blood monocytes; assay type: cell-based; conditions: Monocyte, lipopolysaccharide 50 ng/ml, 24 h
Experimental: Human peripheral blood monocytes are isolated and purified from either fresh blood preparations from volunteer donors, or from blood bank buffy coats, according to the procedure of Colotta et al, J Immunol, 132, 936 (1984). These monocytes (1×10^6) are plated in 24-well plates at a concentration of 1–2 million/ml per well. The cells are allowed to adhere for 2 hours, after which time non-adherent cells are removed by gentle washing. Test compounds are then added to the cells for 1 h before the addition of lipopolysaccharide (50 ng/ml), and the cultures are incubated at 37° C. for an additional 24 h. At the end of this period, culture supernatants are removed and clarified of cells and all debris. Culture supernatants are then immediately assayed for IL-1 biological activity, either by the method of Simon et al., J. Immunol. Methods, 84, 85, (1985) (based on ability of IL-1 to stimulate a Interleukin 2 producing cell line (EL-4) to secrete IL-2, in concert with A23187 ionophore) or the method of Lee et al., J. ImmunoTherapy, 6 (1), 1–12 (1990) (ELISA assay).

CSBP/p38 = target: T1, CSBP/p38 (Homo sapiens, UniProt Q16539); assay: CSBP/p38 Kinase Assay (32P transfer to T669 peptide); assay type: biochemical; conditions: "in this binding assay or a similar assay"; read-out: positive inhibitory activity, IC50
T1 construct: made in house; host or cells: yeast
Experimental: This assay measures the CSBP/p38-catalyzed transfer of ^32p from [a-^32P]ATP to threonine residue in an epidermal growth factor receptor (EGFR)-derived peptide (T669) with the following sequence: […] (residues 661–681). (See Gallagher et al., “Regulation of Stress Induced Cytokine Production by Pyridinyl Imidazoles: Inhibition of CSBP Kinase”, BioOrganic & Medicinal Chemistry, 1997, 5, 49–64).
Reactions were carried in round bottom 96 well plate (from Corning) in a […]. Reactions contained (in final concentration): 25 mM Hepes, pH 7.5; 8 mM MgCl2; 0.17 mM ATP (the Km[ATP] of p38 (see Lee et al., Nature 300, n72 pg. 639–746 (December 1994)); 2.5 uCi of [g-32P]ATP; 0.2 mM sodium orthovanadate; 1 mM DTT; 0.1% BSA; 10% glycerol; 0.67 mM T669 peptide; and 2–4 nM of yeast-expressed, activated and purified p38. Reactions were initiated by the addition of [gamma-32P]Mg/ATP, and incubated for 25 min. at 37° C. Inhibitors (dissolved in DMSO) were incubated with the reaction mixture on ice for 30 minutes prior to adding the 32P-ATP. Final DMSO concentration was 0.16%. Reactions were terminated by adding 10 ul of 0.3 M phosphoric acid, and phosphorylated peptide was isolated from the reactions by capturing it on p81 phosphocellulose filters. Filters were washed with 75 mM phosphoric acids, and incorporated 32P was quantified using beta scintillation counter. […]

T1 sequence (Q16539 whole entry): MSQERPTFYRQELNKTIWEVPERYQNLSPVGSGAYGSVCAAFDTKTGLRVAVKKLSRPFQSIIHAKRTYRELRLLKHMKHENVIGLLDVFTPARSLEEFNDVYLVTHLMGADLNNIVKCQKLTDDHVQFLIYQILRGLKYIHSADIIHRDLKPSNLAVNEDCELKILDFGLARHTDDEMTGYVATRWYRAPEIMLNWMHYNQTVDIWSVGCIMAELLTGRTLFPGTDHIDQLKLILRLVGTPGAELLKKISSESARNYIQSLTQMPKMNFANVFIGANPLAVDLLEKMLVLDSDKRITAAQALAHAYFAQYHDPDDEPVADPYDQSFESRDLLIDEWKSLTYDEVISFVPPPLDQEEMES

IC50 (Interleukin-1 (IL-1)) | IC50 (CSBP/p38) | SMILES
< 7 µM | – | Fc1ccc(-c2nc(-c3ccccc3)nn2-c2ccncc2)cc1 [Example 1, 1-(Pyrid-4-yl)-3-phenyl-5-(4-fluorophenyl)-1,2,4-triazole]
– | < 50 µM | Nc1cc(-n2nc(-c3ccccc3)nc2-c2ccc(F)cc2)ncn1 [Example 2, 1-(6-Aminopyrimidin-4-yl)-3-phenyl-5-(4-fluorophenyl)-1,2,4-triazole]
